Source: patent US10076503B2 (priority 2014, dated 2018)

How the values were obtained:
clinical = conditions: human, in vivo
Protocol: Upon oral administration, methylphenidate is rapidly and completely absorbed from the gastrointestinal tract. Peak concentrations occur 1 to 2 hours after dose administration. […] When methylphenidate and cocaine are administered intravenously, their pharmacokinetics are quite similar—the percentage of each drug taken up by the brain and their rates of uptake are parallel, although the clearance from the brain of cocaine is faster than that of methylphenidate. The receptor-binding affinities for cocaine and methylphenidate are similar at the dopamine transporter in the basal ganglia and the striatum. […] Thus it appears that abuse may be related to a rapid surge in dopamine levels in the striatum. […] The consequence of the slow increase in dopamine is the absence of a “high”, and the consequence of the long T1/2 is that serum concentration gradually increases to a steady state.

adults with ADHD = format: in vivo, human
Protocol: The study consisted of three periods including Screening, Treatment, and Washout/Follow-up, as described below. Efficacy was evaluated using the ADHD Rating Scale Version IV (ADHD RS-IV) with adult prompts. Effects on cognition were evaluated using the clinical data repository system. Safety and tolerability were monitored throughout the study by collection of physical examinations, 12-lead electrocardiograms (ECG), vital signs, adverse events (AEs), hematology, blood chemistry, urinalysis, Insomnia Severity Index (ISI), and Columbia—Suicide Severity Rating Scale (C-SSRS).
Subjects self-administered the study drug at home on Days 1 through 28, at approximately the same time each night. After Day 1 subjects returned to the clinic on Days 8, 15, 22, and 29. Beginning at Day 1 and at every visit during the treatment period, the ADHD RS-IV, Wender-Reimherr Adult Attention Deficit Disorder Scale (WRAADDS), and clinical global impression—severity (CGI-S) were completed. The clinical data repository system was administered at Baseline, and Days 15 and 29.
At Days 36 and 43, subjects returned to the clinic and the ADHD RS-IV, WRAADDS, and CGI-S were completed. The clinical data repository system was completed on Day 43.

DAT sites = biological target: T1, DAT sites (Homo sapiens, UniProt Q01959); assay: DAT site occupancy versus serum concentration (other studies, not shown); conditions: in vivo
T1 construct: from tissue; host or cells: brain in vivo (my inference)
T1 sequence (Q01959 whole entry): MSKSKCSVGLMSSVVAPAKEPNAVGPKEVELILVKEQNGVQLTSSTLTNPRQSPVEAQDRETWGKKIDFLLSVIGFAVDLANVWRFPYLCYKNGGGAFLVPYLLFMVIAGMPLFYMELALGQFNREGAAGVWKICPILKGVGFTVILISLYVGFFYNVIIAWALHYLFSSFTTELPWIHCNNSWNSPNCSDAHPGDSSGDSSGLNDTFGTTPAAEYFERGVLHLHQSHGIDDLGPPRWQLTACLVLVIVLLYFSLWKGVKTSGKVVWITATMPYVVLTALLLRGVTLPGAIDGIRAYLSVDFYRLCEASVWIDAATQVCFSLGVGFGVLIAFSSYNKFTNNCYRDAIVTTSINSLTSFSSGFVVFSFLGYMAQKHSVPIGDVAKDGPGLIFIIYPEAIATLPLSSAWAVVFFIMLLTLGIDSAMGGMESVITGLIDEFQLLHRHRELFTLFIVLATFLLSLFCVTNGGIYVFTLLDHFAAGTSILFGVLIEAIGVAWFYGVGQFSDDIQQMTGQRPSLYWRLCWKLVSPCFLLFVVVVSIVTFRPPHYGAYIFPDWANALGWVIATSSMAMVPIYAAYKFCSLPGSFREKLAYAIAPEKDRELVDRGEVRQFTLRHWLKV

[1] = test system: healthy recreational stimulant users; assay: single-dose crossover abuse potential study, placebo- and methylphenidate-controlled; format: in vivo, human
Source text: A single-dose, randomized, double-blind, double-dummy, placebo- and active-controlled crossover study with 6 Treatment Visits per subject was undertaken. […] Subjects participated in a medical screening visit (Visit 1), one 4-day inpatient qualification phase (Visit 2), a treatment phase (Visits 3 to 8) consisting of six 5-day inpatient treatment visits, and a safety follow-up visit (Visit 9). Within 21 days of the screening visit, subjects were enrolled and attended a qualification phase in which they received either 60 mg methylphenidate or matching placebo in a randomized double-blind crossover manner. Dosing times were separated by approximately 24 hours to ensure that subjects could discriminate and show positive effects of the positive control.
Healthy female and male subjects aged 18 to 55 years (inclusive), who were recreational central nervous system (CNS) stimulant users with cocaine experience and who had passed the methylphenidate qualification phase, were randomized into the treatment.
Drug administration occurred on Day 1 of each treatment visit followed by pharmacodynamic (PD), pharmacokinetic (PK), and safety assessments conducted for up to 72 hours post-dose. […] Subjects were randomized to one of 6 treatment sequences according to a 6×6 William square design. The capsules received at each treatment visit (Visits 3 to 8) were identical. Serial pharmacodynamic and pharmacokinetic evaluations were taken at each treatment visit. Pharmacokinetic analysis was performed for dasotraline. Safety monitoring included regular assessments of vital signs, clinical laboratory tests, and adverse events (AEs), as well as continuous telemetry monitoring for at least 12 hours post-dose. Treatment visits were separated by a washout interval of at least 21 days (from the day of dosing). Subjects returned for the safety follow-up visit within approximately 14 days following the end of the last treatment visit.

[2] = cited from earlier work
[3] = methylphenidate 40 mg and 80 mg, single dose

N[C@@H]1CC[C@@H](c2ccc(Cl)c(Cl)c2)c2ccccc21 [dasotraline, (1R,4S)-4-(3,4-Dichlorophenyl)-1,2,3,4-tetrahydronaphthalen-1-amine]
Cmax (clinical; 4 mg): ~1.5 ng/mL | Tmax (clinical; 4 mg): > 6 h | Tmax (clinical; po): 10 to 12 h | half-life (clinical; po): 47 to 77 h | anxiety leading to discontinuation (adults with ADHD; 4 mg once daily): 2.6% | computerized cognitive assessment battery: attention, working memory, episodic memory (adults with ADHD; 4 mg once daily): no significant main effects | insomnia leading to discontinuation (adults with ADHD; 4 mg once daily): 2.6% | Wender-Reimherr ADD total score (adults with ADHD; 4 mg once daily versus placebo): did not improve enough to achieve statistical significance | treatment-emergent adverse events (TEAEs), percentage (adults with ADHD; 4 mg once daily versus placebo): higher than the percentage of TEAEs in the placebo group | Wender-Reimherr subscore for the attention difficulties component (adults with ADHD; 4 mg once daily versus placebo, week 4): statistically significant improvement | serum concentration as a function of time (adults with ADHD; 4 mg once daily, 4 weeks): began to plateau by week four | ADHD RS-IV total score, LS mean change from baseline versus placebo (adults with ADHD; 4 mg once daily, to week four, p<0.05, FIG. 1): statistically different at weeks three and four | CGI-S score, LS mean change from baseline versus placebo (adults with ADHD; 4 mg once daily, to week four, p<0.05, FIG. 2): statistically different at weeks three and four | incidence of adverse events rated as severe (adults with ADHD; 4 mg once daily, placebo group 2.7%): 6% | mean concentrations at steady state (adults with ADHD; 4 mg/d): 6 ng/mL | circulating DHPG levels (adults with ADHD; 4 mg/d, indicative of central inhibition of norepinephrine transporters): decreased circulating DHPG levels | time of administration to statistically significant improvement in ADHD (adults with ADHD; oral dosage form containing 4 mg): about two to three | serum concentration at which 50% DAT site occupancy was achieved (DAT sites): 5 to 6 ng/mL | differences from placebo on pharmacodynamic endpoints ([1]; 16 mg single dose): very few statistically significant differences from placebo | effects on most pharmacodynamic endpoints versus placebo ([1]; dasotraline 8, 16 and 36 mg, single dose): not significantly different from those of placebo

COC(=O)C(c1ccccc1)C1CCCCN1 (stereo not shown) [methylphenidate]
pharmacokinetic half-life ([2]; in vivo): approximately 2 hours | time of peak concentrations after dose administration ([2]; oral administration): 1 to 2 h | Drug Similarity Visual Analog Scale [1, 3]: strongly identified as a stimulant | majority of pharmacodynamic endpoints incl. Drug Liking Visual Analog Scale, versus placebo [1, 3]: significant differences compared to placebo | secondary stimulant measures [1, 3]: strong stimulant effects
